Here are results for one compound from article PMC4806491, “The milk-derived fusion peptide, ACFP, suppresses the growth of primary human ovarian cancer cells by regulating apoptotic gene expression and signaling pathways” (BMC Cancer, 2016).

Series [1] can be described thus: oil (octanol)/water partition coefficient. In kind it is physicochemical. Particulars: pH 7, preliminary experiments.
In series [2] the test system is normal ovarian glandular epithelium cells (NOGECs). As to the kind of experiment: WST-1 viability assay, general toxicity. The class given is cell-based, human. Particulars: WST-1, compared with paclitaxel, Fig. 3b, cells from 7 patients. The procedure: Fresh primary ovarian tumor tissues that were assessed and classified as serous ovarian adenocarcinoma (III-IV grade) according to WHO criteria were collected from 53 ovarian cancer patients who underwent initial debulking surgery at the first affiliated hospital of Anhui Medical University between June 2012 and June 2014. All patients had not received adjuvant therapies, such as chemotherapy or radiotherapy, prior to surgery. For comparison, normal ovarian glandular epithelium cells (NOGECs) were cultured from fresh primary normal ovarian tissues harvested from 7 patients with uterine fibromas, which were confirmed as negative for any neoplastic disease by pathological examination. […] To determine purity, cells were analyzed using immunofluorescence of cytokeratin 7 (for ovarian cancer cells) or cytokeratin 19 (for normal ovarian epithelium cells).
Primary ovarian cancer cells were seeded into 96-well plates in sextuplicate at a starting density of 5 × 10^3 cells/well and incubated with ACFP at the concentrations: 0 (as control), 5 × 10^−6, 5 × 10^−5, 5 × 10^−4, 5 × 10^−3, 5 × 10^−2, 5 × 10^−1 and 5 g/L for 24, 48 and 72 h, respectively. […] Cell viability was later measured using the WST-1 (water-soluble tetrazolium 1) cell viability and cytotoxicity assay kit (Beyotime, Haimen, China) according to the manufacturer’s instructions. […]

Molecules are shown by their SMILES. Positions of bridges follow the written chain, without caps; N, C: chain ends. Residues, ends and D or L forms follow the SMILES beside them.

As usually defined, the logD is lipophilicity at a set pH, counting ionised and neutral species. In series [1], `CC[C@H](C)[C@@H]1NC(=O)[C@H](CO)NC(=O)[C@@H]2CCCN2C(=O)[C@H](C)NC(=O)CNC(=O)[C@H](CC(C)C)NC(=O)[C@H](CCCCN)NC(=O)[C@H](CCCCN)NC(=O)[C@H](CCSC)NC(=O)[C@H](CCCNC(=N)N)NC(=O)[C@H](Cc2c[nH]c3ccccc23)NC(=O)[C@H](CCC(N)=O)NC(=O)[C@H](Cc2c[nH]c3ccccc23)NC(=O)[C@H](CCCNC(=N)N)NC(=O)[C@H](CCCNC(=N)N)NC(=O)[C@@H](NC(=O)[C@H](CCCCN)NC(=O)[C@@H](N)Cc2ccccc2)CSSC[C@@H](C(=O)N[C@H](C(=O)N[C@@H](CCCNC(=N)N)C(=O)N[C@@H](CCCNC(=N)N)C(=O)N[C@@H](C)C(=O)N[C@@H](Cc2ccccc2)C(=O)NCC(=O)NCC(=O)NCC(=O)NCC(=O)N[C@@H](CO)C(=O)N2CCC[C@H]2C(=O)NCC(=O)N2CCC[C@H]2C(=O)N[C@H](C(=O)N2CCC[C@H]2C(=O)N[C@@H](CC(N)=O)C(=O)O)[C@@H](C)CC)C(C)C)NC(=O)[C@H]([C@@H](C)O)NC1=O` [ACFP] (H-FKCRRWQWRMKKLGAPSITCVRRAFGGGGSPGPIPN-OH; disulfide 3-20; N-terminus and C-terminus assumed) registered a pH-dependent lipophilicity (logD) of -0.91. Further, the “cytotoxicity toward normal primary ovarian cells” value in series [2] is “little or no cytotoxicity”.
